Source: PubChem BioAssay (NCI)
Values joined by “and” are separate entries in the source; they are usually repeats but may differ in a detail not shown here. Equal entries are not always repeated.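 Briefly, cells in 96-well plates were exposed to five compound concentrations for 48 h, and endpoints were estimated by linear interpolation. At the GI50, growth is halved. TGI: concentration producing complete growth inhibition.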

Key:
Experiment in all cases: NCI tumour cell line growth inhibition, 48 h
[1] = system: A549 NSCLC
[2] = system: NCI-H522 lung
[3] = system: DU-145 prostate
[4] = system: COLO 205 colon
[5] = system: SNB-19 CNS
[6] = system: MDA-MB-435
[7] = system: K-562 leukemia
[8] = system: BT-549 breast

SMILES | GI50 [1] | TGI [1] | GI50 [2] | TGI [2] | GI50 [3] | TGI [3] | GI50 [4] | TGI [4] | GI50 [5] | TGI [5] | GI50 [6] | TGI [6] | GI50 [7] | TGI [7] | GI50 [8] | TGI [8]
COc1cc2nc(-c3ccc(Cl)cc3)cc(OCCCN3CCCCC3)c2cc1OC | 1.9 µM | > 100 µM | 3.28 µM | > 100 µM | 2.54 µM | > 100 µM | 0.582 µM | > 100 µM | 2.98 µM | > 100 µM | – | – | – | – | – | –
CCOC(=O)CCCn1c(SC)nc2[nH]cc(-c3ccccc3)c2c1=O | 12.2 µM | 36.2 µM | 15 µM | 37.8 µM | 17.1 µM | > 100 µM | 24.2 µM | 56.1 µM | 21 µM | > 100 µM | 19.4 µM | 42.4 µM | 12.7 µM | 56.9 µM | – | –
C=CCCCCC/C=C\[C@H](O)C#CC#C/C=C/CO | 21.2 µM | 45.4 µM | 19.3 µM | 45.4 µM | 66.3 µM | > 100 µM | 36.7 µM | > 100 µM | > 100 µM | > 100 µM | 39.8 µM | > 100 µM | – | – | 20.1 µM | 54.7 µM
COc1cc(N(CCC#N)CCC#N)ccc1/C(N=Nc1ccc([N+](=O)[O-])cc1)=N/NC(=O)c1cc(Br)ccc1O | 44.4 µg/mL | 140 µg/mL | 53.4 µg/mL | > 150 µg/mL | 30.3 µg/mL | 70.9 µg/mL | 24 µg/mL | 45.9 µg/mL | 58.5 µg/mL | > 150 µg/mL | 52.2 µg/mL | > 150 µg/mL | 63.1 µg/mL | > 150 µg/mL | 53 µg/mL | > 150 µg/mL
CC(C)=CC/C=C(/C)[C@H]1CC[C@]2(C)[C@@H]1CC[C@@H]1[C@@]3(C)CCCNC(C)(C)[C@@H]3CC[C@]12C | 2.15 µM | 4.88 µM | 1.98 µM | 4.48 µM | 2.08 µM | 4.31 µM | 1.8 µM | 3.53 µM | 3.39 µM | 11.6 µM | 1.83 µM | 3.49 µM | 1.79 µM | 5.3 µM | 12.4 µM | 32.5 µM
O=c1c2sc(=S)n(-c3ccc(F)cc3)c2ncn1Cc1ccc(F)cc1F | 92.1 µM | > 100 µM | > 100 µM | > 100 µM | > 100 µM | > 100 µM | > 100 µM | > 100 µM | 75.8 µM | > 100 µM | > 100 µM | > 100 µM | > 100 µM | > 100 µM | > 100 µM | > 100 µM
COc1ccc(C(C)=O)cc1N1C(=O)C2C(C1=O)C1(c3ccccc3)C(=O)C2(c2ccccc2)C(c2ccc(C)cc2)=C1c1ccc(C)cc1 (stereo not given) | > 100 µM | > 100 µM | > 100 µM | > 100 µM | > 100 µM | > 100 µM | > 100 µM | > 100 µM | > 100 µM | > 100 µM | > 100 µM | > 100 µM | > 100 µM | > 100 µM | > 100 µM | > 100 µM
CCCCCCCCCCCCCC1=NC(C)(C)CN1C(C)C | 1.76 µM | 3.25 µM | 1.58 µM | 2.97 µM | 1.7 µM | 3.06 µM | 1.41 µM | 2.71 µM | 1.79 µM | 3.18 µM | 1.51 µM | 3.08 µM | – | – | 2.33 µM | 6 µM
CCN(CC)CCC(CNc1ccnc2cc(Cl)ccc12)c1ccc(OC)cc1 (stereo not given) | 16.3 µM and 11.3 µM | 32.5 µM and 26.1 µM | 3.29 µM and 2.16 µM | 13.1 µM and 8.47 µM | 21.9 µM and 26.7 µM | > 100 µM | 1.9 µM and 1.34 µM | 4.3 µM and 2.95 µM | 10.3 µM and 11 µM | 29 µM and 29.9 µM | 1.91 µM and 1.65 µM | 4.12 µM and 3.71 µM | 1.79 µM and 1.19 µM | 5.76 µM and 4.14 µM | 8.14 µM and 8.47 µM | 23.4 µM and 22.6 µM
N#CC(=C1C=CC(=NO)C=C1)c1ccccc1 | 4.58 µM | > 37.2 µM | 1.02 µM | 4.68 µM | 1.58 µM | 4.05 µM | 6.33 µM | 18.5 µM | 3.73 µM | 9.35 µM | 0.331 µM | 1.65 µM | 1.85 µM | 13.2 µM | 2.42 µM | 11.6 µM
CN(C)N=Nc1ccc(NC=O)cc1 | – | > 100 µM | – | – | – | > 100 µM | – | > 100 µM | – | > 100 µM | – | > 100 µM | – | > 100 µM | – | > 100 µM
Cn1c2ccccc2c2c3c(c4c5cc(Br)ccc5n(C)c4c21)C(=O)N(O)C3=O | 0.262 µM | > 100 µM | 0.167 µM | > 100 µM | – | – | – | – | 0.0536 µM | > 100 µM | 0.319 µM | > 100 µM | 0.197 µM | > 100 µM | – | –
O=C(OC(CNc1cc(=O)n(Cc2ccccc2)c(=O)n1Cc1ccccc1)CN1CCCC1)c1ccccc1 (stereo not given) | > 100 µM | > 100 µM | > 100 µM | > 100 µM | 1.9 µM | > 100 µM | > 100 µM | > 100 µM | > 100 µM | > 100 µM | > 100 µM | > 100 µM | 92.1 µM | > 100 µM | 0.781 µM | > 100 µM
NC(=Nc1c([N+](=O)[O-])cnc2ccccc12)N1CCOCC1 | – | > 100 µM | – | > 100 µM | – | > 100 µM | – | > 100 µM | – | > 100 µM | – | > 100 µM | – | > 100 µM | – | > 100 µM
COc1ccc2c(c1)CCCC(Br)C2=O (stereo not given) | – | > 43.6 µM | – | 0.837 µM | – | 44.9 µM | – | 10.9 µM | – | 22.3 µM | – | 5.99 µM | – | 18.7 µM | – | 7.31 µM
CC(C)CCN1c2nc(Nc3cc(F)c(O)c(F)c3)ncc2N(C)C(=O)C1C (stereo not given) | 4.88 µM | 37.6 µM | 2.52 µM | 22.4 µM | 6.41 µM | 77.5 µM | 14.6 µM | 29.3 µM | 6.35 µM | > 100 µM | 1.29 µM | 55.8 µM | 2.63 µM | > 33.3 µM | 5.66 µM | > 67.7 µM
NC(=O)NC1C(c2ccccc2)=C1c1ccccc1 | – | 74.6 µM | – | – | – | > 100 µM | – | 27.9 µM | – | > 100 µM | – | 40.3 µM | – | 43.1 µM | – | 26.7 µM
